Structures can show the parent of a compound that is named as a salt.
system: GST-Braf kinase domain and biotinylated E3 substrate adapter (VHL/EloB/EloC complex or CRBN318-425); assay: Dimerization assay (AlphaScreen/AlphaLisa), RAF/E3 dimerization; format: binding; details: Table 15; relative value; compounds 4 fold serial dilutions from 20 μM

| Compound | RAF/E3 Dimerization |
| --- | --- |
| Cc1ncc(NC(=O)c2cccc(C(F)(F)F)c2)cc1-c1cnc(OCc2cn(CCCCCC(=O)Nc3cccc4c3C(=O)N(C3CCC(=O)NC3=O)C4=O)nn2)c(N2CCOCC2)c1 (centres unmarked) [Compound 1.001, N-(6′-((1-(6-((2-(2,6-dioxopiperidin-3-yl)-1,3-dioxoisoindolin-4-yl)amino)-6-oxohexyl)-1H-1,2,3-triazol-4-yl)methoxy)-2-methyl-5′-morpholino-[3,3′-bipyridin]-5-yl)-3-(trifluoromethyl)benzamide] | + + |
| Cc1ncc(NC(=O)c2cccc(C(F)(F)F)c2)cc1-c1cnc(OCCc2cn(CCCCCC(=O)Nc3cccc4c3C(=O)N(C3CCC(=O)NC3=O)C4=O)nn2)c(N2CCOCC2)c1 (centres unmarked) [Compound 1.002, N-(6′-(2-(1-(6-((2-(2,6-dioxopiperidin-3-yl)-1,3-dioxoisoindolin-4-yl)amino)-6-oxohexyl)-1H-1,2,3-triazol-4-yl)ethoxy)-2-methyl-5′-morpholino-[3,3′-bipyridin]-5-yl)-3-(trifluoromethyl)benzamide] | + (5% > RAF/E3 Dimerization) |
| Cc1ncc(NC(=O)c2cccc(C(F)(F)F)c2)cc1-c1cnc(OCCCc2cn(CCCCCC(=O)Nc3cccc4c3C(=O)N(C3CCC(=O)NC3=O)C4=O)nn2)c(N2CCOCC2)c1 (centres unmarked) [Compound 1.003, N-(6′-(3-(1-(6-((2-(2,6-dioxopiperidin-3-yl)-1,3-dioxoisoindolin-4-yl)amino)-6-oxohexyl)-1H-1,2,3-triazol-4-yl)propoxy)-2-methyl-5′-morpholino-[3,3′-bipyridin]-5-yl)-3-(trifluoromethyl)benzamide] | + + |
| Cc1ncc(NC(=O)c2cccc(C(F)(F)F)c2)cc1-c1cnc(OCCCCc2cn(CCCCCC(=O)Nc3cccc4c3C(=O)N(C3CCC(=O)NC3=O)C4=O)nn2)c(N2CCOCC2)c1 (centres unmarked) [Compound 1.004, N-(6′-(4-(1-(6-((2-(2,6-dioxopiperidin-3-yl)-1,3-dioxoisoindolin-4-yl)amino)-6-oxohexyl)-1H-1,2,3-triazol-4-yl)butoxy)-2-methyl-5′-morpholino-[3,3′-bipyridin]-5-yl)-3-(trifluoromethyl)benzamide] | + (5% > RAF/E3 Dimerization) |
| Cc1ncc(NC(=O)c2cccc(C(F)(F)F)c2)cc1-c1cnc(OCCCCCc2cn(CCCCCC(=O)Nc3cccc4c3C(=O)N(C3CCC(=O)NC3=O)C4=O)nn2)c(N2CCOCC2)c1 (centres unmarked) [Compound 1.005, N-(6′-((5-(1-(6-((2-(2,6-dioxopiperidin-3-yl)-1,3-dioxoisoindolin-4-yl)amino)-6-oxohexyl)-1H-1,2,3-triazol-4-yl)pentyl)oxy)-2-methyl-5′-morpholino-[3,3′-bipyridin]-5-yl)-3-(trifluoromethyl)benzamide] | + (5% > RAF/E3 Dimerization) |
| Cc1ncc(NC(=O)c2cccc(C(F)(F)F)c2)cc1-c1cnc(OCCCCCCc2cn(CCCCCC(=O)Nc3cccc4c3C(=O)N(C3CCC(=O)NC3=O)C4=O)nn2)c(N2CCOCC2)c1 (centres unmarked) [Compound 1.006, N-(6′-((6-(1-(6-((2-(2,6-dioxopiperidin-3-yl)-1,3-dioxoisoindolin-4-yl)amino)-6-oxohexyl)-1H-1,2,3-triazol-4-yl)hexyl)oxy)-2-methyl-5′-morpholino-[3,3′-bipyridin]-5-yl)-3-(trifluoromethyl)benzamide] | + (5% > RAF/E3 Dimerization) |
| Cc1ncc(NC(=O)c2cccc(C(F)(F)F)c2)cc1-c1cnc(OCCOCCOCCOCc2cn(CCCCCC(=O)Nc3cccc4c3C(=O)N(C3CCC(=O)NC3=O)C4=O)nn2)c(N2CCOCC2)c1 (centres unmarked) [Compound 1.007, N-(6′-(2-(2-(2-((1-(6-((2-(2,6-dioxopiperidin-3-yl)-1,3-dioxoisoindolin-4-yl)amino)-6-oxohexyl)-1H-1,2,3-triazol-4-yl)methoxy)ethoxy)ethoxy)ethoxy)-2-methyl-5′-morpholino-[3,3′-bipyridin]-5-yl)-3-(trifluoromethyl)benzamide] | + + + |
| Cc1ncc(NC(=O)c2cccc(C(F)(F)F)c2)cc1-c1cnc(OCCOCCOCCOCCOCCOCc2cn(CCCCCC(=O)Nc3cccc4c3C(=O)N(C3CCC(=O)NC3=O)C4=O)nn2)c(N2CCOCC2)c1 (centres unmarked) [Compound 1.008, N-(6′-((1-(1-(6-((2-(2,6-dioxopiperidin-3-yl)-1,3-dioxoisoindolin-4-yl)amino)-6-oxohexyl)-1H-1,2,3-triazol-4-yl)-2,5,8,11,14-pentaoxahexadecan-16-yl)oxy)-2-methyl-5′-morpholino-[3,3′-bipyridin]-5-yl)-3-(trifluoromethyl)benzamide] | + + + |

same assay, conditions: Table 16; relative value; compounds 4 fold serial dilutions from 20 μM

| Compound | RAF/E3 Dimerization |
| --- | --- |
| Cc1ncc(NC(=O)c2cccc(C(F)(F)F)c2)cc1-c1cnc(OCCOCCOCCOCC(=O)N[C@@H](C(=O)N2C[C@H](O)C[C@H]2C(=O)N[C@@H](C)c2ccc(-c3scnc3C)cc2)C(C)(C)C)c(N2CCOCC2)c1 [Compound 1.013, (2S,4R)-1-((R)-2-(tert-butyl)-14-((2′-methyl-5-morpholino-5′-(3-(trifluoromethyl)benza-mido)-[3,3′-bipyridin]-6-yl)oxy)-4-oxo-6,9,12-trioxa-3-azatetradecan-1-oyl)-4-hydroxy-N—((S)-1-(4-(4-methylthiazol-5-yl)phenyl)ethyl)pyrrolidine-2-carboxamide] | + + + |

same assay, conditions: Table 17; relative value; compounds 4 fold serial dilutions from 20 μM

| Compound | RAF/E3 Dimerization |
| --- | --- |
| Cc1ncc(NC(=O)c2cccc(C(F)(F)F)c2)cc1-c1cnc(OC(C)Cc2cnnn2CCCCCC(=O)Nc2cccc3c2C(=O)N(C2CCC(=O)NC2=O)C3=O)c(N2CCOCC2)c1 (racemic) [Compound 1.010, (±)-N-(6′-((1-(1-(6-((2-(2,6-dioxopiperidin-3-yl)-1,3-dioxoisoindolin-4-yl)amino)-6-oxohexyl)-1H-1,2,3-triazol-5-yl)propan-2-yl)oxy)-2-methyl-5′-morpholino-[3,3′-bipyridin]-5-yl)-3-(trifluoromethyl)benzamide] | + (5% > RAF/E3 Dimerization) |
| Cc1ccc(NC(=O)c2cccc(C(F)(F)F)c2)cc1-c1cnc(OC(C)Cc2cnnn2CCCCCC(=O)Nc2cccc3c2C(=O)N(C2CCC(=O)NC2=O)C3=O)c(N2CCOCC2)c1 (racemic) [Compound 1.011, (±)-N-(3-(6-((1-(1-(6-((2-(2,6-dioxopiperidin-3-yl)-1,3-dioxoisoindolin-4-yl)amino)-6-oxohexyl)-1H-1,2,3-triazol-5-yl)propan-2-yl)oxy)-5-morpholinopyridin-3-yl)-4-methylphenyl)-3-(trifluoromethyl)benzamide] | + (5% > RAF/E3 Dimerization) |
| CCC(Cc1cnnn1CCCCCC(=O)Nc1cccc2c1C(=O)N(C1CCC(=O)NC1=O)C2=O)Oc1ncc(-c2cc(NC(=O)c3cccc(C(F)(F)F)c3)cnc2C)cc1N1CCOCC1 (racemic) [Compound 1.012, (±)-N-(6′-((1-(1-(6-((2-(2,6-dioxopiperidin-3-yl)-1,3-dioxoisoindolin-4-yl)amino)-6-oxohexyl)-1H-1,2,3-triazol-5-yl)butan-2-yl)oxy)-2-methyl-5′-morpholino-[3,3′-bipyridin]-5-yl)-3-(trifluoromethyl)benzamide] | + (5% > RAF/E3 Dimerization) |
| Cc1ncsc1-c1ccc([C@H](C)NC(=O)C2C[C@@H](O)CN2C(=O)C(NC(=O)CCOCCOCCNC(=O)c2cc(Oc3ccc(NC(=O)Nc4ccc(Cl)c(C(F)(F)F)c4)cc3)ccn2)C(C)(C)C)cc1 (stereo in doubt) [Compound 1.014, 4-(4-(3-(4-chloro-3-(trifluoromethyl)phenyl)ureido)phenoxy)-N-(2-(2-(3-(((R)-1-((2S,4R)-4-hydroxy-2-(((S)-1-(4-(4-methylthiazol-5-yl)phenyl)ethyl)carbamoyl)pyrrolidin-1-yl)-3,3-dimethyl-1-oxobutan-2-yl)amino)-3-oxopropoxy)ethoxy)ethyl)picolinamide] | + (5% > RAF/E3 Dimerization) |
| Cc1ncsc1-c1ccc([C@H](C)NC(=O)[C@@H]2C[C@@H](O)CN2C(=O)[C@H](NC(=O)CCOCCOCCOCCOCCNC(=O)c2cc(Oc3ccc(NC(=O)Nc4ccc(Cl)c(C(F)(F)F)c4)cc3)ccn2)C(C)(C)C)cc1 [Compound 1.015, 4-(4-(3-(4-chloro-3-(trifluoromethyl)phenyl)ureido)phenoxy)-N-(17-((2S,4R)-4-hydroxy-2-(((S)-1-(4-(4-methylthiazol-5-yl)phenyl)ethyl)carbamoyl)pyrrolidine-1-carbonyl)-18,18-dimethyl-15-oxo-3,6,9,12-tetraoxa-16-azanonadecyl)picolinamide] | + (5% > RAF/E3 Dimerization) |
| Cc1ncsc1-c1ccc([C@H](C)NC(=O)[C@@H]2C[C@@H](O)CN2C(=O)[C@H](NC(=O)CCOCCOCCOCCOCCOCCOCCNC(=O)c2cc(Oc3ccc(NC(=O)Nc4ccc(Cl)c(C(F)(F)F)c4)cc3)ccn2)C(C)(C)C)cc1 [Compound 1.016, 4-(4-(3-(4-chloro-3-(trifluoromethyl)phenyl)ureido)phenoxy)-N—((R)-23-((2S,4R)-4-hydroxy-2-(((S)-1-(4-(4-methylthiazol-5-yl)phenyl)ethyl)carbamoyl)pyrrolidine-1-carbonyl)-24,24-dimethyl-21-oxo-3,6,9,12,15,18-hexaoxa-22-azapentacosyl)picolinamide] | + (5% > RAF/E3 Dimerization) |
| Cc1ncc(NC(=O)c2cccc(C(F)(F)F)c2)cc1-c1cnc(O[C@@H]2CCO[C@@H](COCc3cn(CCCCCC(=O)N[C@@H](C(=O)N4C[C@H](O)C[C@H]4C(=O)N[C@@H](C)c4ccc(-c5scnc5C)cc4)C(C)(C)C)nn3)C2)c(N2CCOCC2)c1 [Compound 2.005] | ++++ (75% > RAF/E3 Dimerization ≥ 50%) |
| Cc1ncc(NC(=O)c2cccc(C(F)(F)F)c2)cc1-c1cnc(OCCOCCOCCOCCN[C@@H](C(=O)N2C[C@H](O)C[C@H]2C(=O)N[C@@H](C)c2ccc(-c3scnc3C)cc2)C(C)(C)C)c(N2CCOCC2)c1 [Compound 2.006, (R)-1-((2S,4R)-4-hydroxy-2-(((S)-1-(4-(4-methylthiazol-5-yl)phenyl)ethyl)carbamoyl)-pyrrolidin-1-yl)-3,3-dimethyl-N-(2-(2-(2-(2-((2′-methyl-5-morpholino-5′-(3-(trifluoro-methyl)benzamido)-[3,3′-bipyridin]-6-yl)oxy)ethoxy)ethoxy)ethoxy)ethyl)-1-oxobutan-2-aminium formate] | + (5% > RAF/E3 Dimerization) |

From US10787443B2, “RAF-degrading conjugate compounds” (ZAMBONI CHEM SOLUTIONS INC., priority 2017, dated 2020)
